From EP0199451B1, “Therapeutic nucleosides” (THE WELLCOME FOUNDATION LIMITED, priority 1985, dated 1986)
Values joined by “and” are separate entries in the source; they are usually repeats but may differ in a detail not shown here. Equal values may be shown once.

Tests used:
[1] = Toxicity assay (LD50) in rats; conditions: rat, in vivo
Method: (§1) The LD₅₀ value was in excess of 750 mg/kg in both species.

FeLV = test: In vivo anti-feline leukaemia virus activity in persistently infected cats
Method: (§2) • (i) In Vitro Activity Susceptible feline embryo lung fibroblasts (FLF-3) were seeded onto multiwell slides (10⁵ cells/ml, 0.05ml/well) with Dulbecco-modified Eagle's essential medium (DME) and incubated at 37°C overnight. […] Concentrations were […]. After 3 days incubation at 37°C, the cultures were assayed by the indirect fluorescent antigen test for the production of FeLV. […] Two cats (a) received 15mg/kg/day, three (b) received 30mg/kg/day and another two (c) received 45mg/kg/day. All doses were administered as three equal doses daily. Of cats (a), only one responded to treatment at all, showing a 10% decrease in FeLV⁺ white blood cells (wbc's). Cats (b) (after 6 weeks) all responded to treatment showing a 10% and 90% drop in Fel_V⁺ wbc's. […] All measurements were taken after 3 weeks therapy, unless otherwise stated.

[2] = Toxicity assay (LD50) in mice; conditions: mouse, in vivo
Method: as §1

[3] = system: feline leukaemia virus (FeLV); test: In vitro anti-feline leukaemia virus activity, indirect fluorescent antigen test in FLF-3 cells; assay type: cell-based, feline embryo lung fibroblasts (FLF-3); conditions: 3 days incubation at 37°C
Method: as §2

In the case of `Cc1cn([C@H]2C[C@H](N=[N+]=[N-])[C@@H](CO)O2)c(=O)[nH]c1=O`, the LD50 [1] is reported as greater than 750 mg/kg, the “decrease in FeLV+ white blood cells (wbc's)” value (FeLV; cats (a), intravenous 15mg/kg/day in three equal doses daily, after 3 weeks, only one of two cats responded) is reported as 10% and the “drop in FeLV+ wbc's” value (FeLV; cats (b), intravenous 30mg/kg/day in three equal doses daily, after 6 weeks, individual cats, 30 mg/kg/day) is reported as 10% and 90% and 5%. The “drop in plasma levels of free FeLV” value (FeLV; cats (b), third cat, intravenous 30mg/kg/day, after 6 weeks) was “hundred-fold”, the “decrease in FeLV+ wbc's” value (FeLV; cats (c), intravenous 45mg/kg/day in three equal doses daily, after 3 weeks, one of two cats) was 10% and the reduction in lymphadenopathy (FeLV; cats (c), intravenous 45mg/kg/day, after 3 weeks, one cat) was “from 2 cm to 0.5 cm”. For the same molecule, the response to treatment (FeLV; cats (c), intravenous 45mg/kg/day, after 3 weeks, the other of two cats) was “no response”, the LD50 [2] was greater than 750 mg/kg and the “production of FeLV” value ([3]; 50µM and above) was “Complete absence of FeLV”. For the same molecule, the activity ([3]; 0.1µm) was “no activity”, the inhibition ([3]; 1µm) was 50-75% and the inhibition at 10 µM ([3]; 72 h, 10µM) was 90%.
